Assay results reported in patent US20260157376A1, “METHOD OF CONTROLLING, LIMITING OR PREVENTING OOMYCETES” (priority 2022, published 2026).

Tested on: Pythium ultimum
Test: In vitro growth inhibition of Pythium ultimum in PDB nutrient broth, 96-well microtiter plate
Format: cell-based
Settings: 24° C., 48 hours

Inpyrfluxam [reference compound] was tested, and the “Observed efficacy (%)” value (20 ppm) was 0%.
For Monopotassium phosphite, the “Observed efficacy (%)” value (125 ppm) was 20%, the “Observed efficacy (%)” value (250 ppm) was 20% and the “Observed efficacy (%)” value (500 ppm) was 20%.
For `N.N.O=[PH](O)O` [Diammonium phosphonate], the “Observed efficacy (%)” value (500 ppm) was 50% and the “Observed efficacy (%)” value (1000 ppm) was 70%.
`COCC(=O)N(c1c(C)cccc1C)[C@H](C)C(=O)OC` [Mefenoxam, reference compound] was tested, and the “Observed efficacy (%)” value (0.007 ppm) was 0%, the “Observed efficacy (%)” value (0.02 ppm) was 20% and the “Observed efficacy (%)” value (0.06 ppm) was 50%.
